Several values for one entry are separate records, joined by “and”; a condition that tells them apart may be missing. Equal entries are not always repeated. Where two headings read alike, the source gives them in different places.
What was measured:
Type in all cases: cell-based
CHK1 = CHK1 (Homo sapiens (Human), UniProt O14757); assay: KINATIV assay; conditions: 1 μM, 90 minutes, BCWM.1 cells
Summary of the method: (§1)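 ATP-biotin probe labeling of whole-cell lysates, followed by ACTIVX identification/quantitation of bound kinases; compounds in duplicate.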

MST3 = MST3 (Homo sapiens (Human), UniProt Q9Y6E0); assay: KINATIV assay; conditions: 1 μM, 90 minutes, BCWM.1 cells
Summary of the method: as §1

FER = FER (Homo sapiens (Human), UniProt P16591); assay: KINATIV assay; conditions: 1 μM, 90 minutes, BCWM.1 cells
Summary of the method: as §1

MAP2K4 = MAP2K4 (Homo sapiens (Human), UniProt P45985); assay: KINATIV assay; conditions: 1 μM, 90 minutes, BCWM.1 cells
Summary of the method: as §1

CHK2 = CHK2 (Homo sapiens (Human), UniProt O96017); assay: KINATIV assay; conditions: 1 μM, 90 minutes, BCWM.1 cells
Summary of the method: as §1

NDR2 = NDR2 (Homo sapiens (Human), UniProt Q9Y2H1); assay: KINATIV assay; conditions: 1 μM, 90 minutes, BCWM.1 cells
Summary of the method: as §1

MAP2K5 = MAP2K5 (Homo sapiens (Human), UniProt Q13163); assay: KINATIV assay; conditions: 1 μM, 90 minutes, BCWM.1 cells
Summary of the method: as §1

GCK = GCK (Homo sapiens (Human), UniProt Q12851); assay: KINATIV assay; conditions: 1 μM, 90 minutes, BCWM.1 cells
Summary of the method: as §1

SMG1 = SMG1 (Homo sapiens (Human), UniProt Q96Q15); assay: KINATIV assay; conditions: 1 μM, 90 minutes, BCWM.1 cells
Summary of the method: as §1

kinases in BCWM.1 cells [1] = biological target: kinases in BCWM.1 cells (Homo sapiens, UniProt Q96S38); assay: KINATIV assay of compounds I-3 and I-9, lysate directly labeled with ATP-biotin probe (no GF); conditions: RSKL1; ATP; 1 μM, 90 min; no GF
Procedure: (§2) The cells were harvested and lysed. […] Bound kinases were identified and quantitated by ACTIVX as described in Patricelli et al., Biochemistry, 2007, 46(2): 350-358. The compounds were tested in duplicates against duplicate or quadruplicate control samples.

kinases in BCWM.1 cells [2] = biological target: T1, kinases in BCWM.1 cells (Homo sapiens, UniProt O94921); assay: as above
Procedure: as §2

kinases in BCWM.1 cells [3] = biological target: kinases in BCWM.1 cells (Homo sapiens, UniProt P51957); assay: as above; conditions: NEK4; Lys2; 1 μM, 90 min; no GF
Procedure: as §2

kinases in BCWM.1 cells [4] = biological target: kinases in BCWM.1 cells (Homo sapiens, UniProt Q7RTN6); assay: as above; conditions: STLK5; Activation Loop; 1 μM, 90 min; no GF
Procedure: as §2

kinases in BCWM.1 cells [5] = biological target: kinases in BCWM.1 cells (Homo sapiens, UniProt O95819); assay: as above; conditions: ZC1/HGK; Lys1; 1 μM, 90 min; no GF
Procedure: as §2

kinases in BCWM.1 cells [6] = biological target: kinases in BCWM.1 cells (Homo sapiens, UniProt P29597); assay: as above; conditions: TYK2 domain2; Activation Loop; 1 μM, 90 min; no GF
Procedure: as §2

kinases in BCWM.1 cells [7] = biological target: kinases in BCWM.1 cells (Homo sapiens, UniProt Q9UL54); assay: as above; conditions: TAO2; Lys2; 1 μM, 90 min; no GF
Procedure: as §2

kinases in BCWM.1 cells [8] = biological target: kinases in BCWM.1 cells (Homo sapiens, UniProt P51812); assay: as above; conditions: Lys2, 1 μM, 90 min, no GF
Procedure: as §2

kinases in BCWM.1 cells [9] = biological target: kinases in BCWM.1 cells (Homo sapiens, UniProt Q9BZL6); assay: as above; conditions: PKD2; Lys1; 1 μM, 90 min; no GF
Procedure: as §2

kinases in BCWM.1 cells [10] = biological target: kinases in BCWM.1 cells (Homo sapiens, UniProt P15735); assay: as above; conditions: PHKg2; Lys1; 1 μM, 90 min; no GF
Procedure: as §2

kinases in BCWM.1 cells [11] = biological target: kinases in BCWM.1 cells (Homo sapiens, UniProt Q96SB4); assay: as above; conditions: SRPK1; Lys2; 1 μM, 90 min; no GF
Procedure: as §2

kinases in BCWM.1 cells [12] = biological target: kinases in BCWM.1 cells (Homo sapiens, UniProt Q8NEB9); assay: as above; conditions: PIK3C3; ATP; 1 μM, 90 min; no GF
Procedure: as §2

kinases in BCWM.1 cells [13] = biological target: T1, kinases in BCWM.1 cells
Procedure: as §2

kinases in BCWM.1 cells [14] = biological target: kinases in BCWM.1 cells (Homo sapiens, UniProt Q9UKE5); conditions: ZC2/TNIK; Lys1; 1 μM, 90 min; GF
Procedure: as §2

kinases in BCWM.1 cells [15] = biological target: kinases in BCWM.1 cells (Homo sapiens, UniProt Q13464); conditions: ROCK1; Protein Kinase Domain; 1 μM, 90 min; GF
Procedure: as §2

kinases in BCWM.1 cells [16] = biological target: kinases in BCWM.1 cells (Homo sapiens, UniProt Q58A45); conditions: PAN3; Protein Kinase Domain; 1 μM, 90 min; GF
Procedure: as §2

CDK5 = CDK5 (Homo sapiens (Human), UniProt Q00535); assay: KINATIV assay; conditions: 1 μM, 90 minutes, BCWM.1 cells
Summary of the method: as §1

PIK3C3 = PIK3C3 (Homo sapiens (Human), UniProt Q8NEB9); assay: KINATIV assay; conditions: 1 μM, 90 minutes, BCWM.1 cells
Summary of the method: as §1

MAP2K3 = MAP2K3 (Homo sapiens (Human), UniProt P46734); assay: KINATIV assay; conditions: 1 μM, 90 minutes, BCWM.1 cells
Summary of the method: as §1

PLK1 = PLK1 (Homo sapiens (Human), UniProt P53350); assay: KINATIV assay; conditions: 1 μM, 90 minutes, BCWM.1 cells
Summary of the method: as §1

IRAK4 = IRAK4 (Homo sapiens (Human), UniProt Q9NWZ3); assay: KINATIV assay; conditions: 1 μM, 90 minutes, BCWM.1 cells
Summary of the method: as §1

RSK1 domain 1 = RSK1 domain 1 (Homo sapiens (Human), UniProt Q15418); assay: KINATIV assay; conditions: 1 μM, 90 minutes, BCWM.1 cells
Summary of the method: as §1

LOK = LOK (Homo sapiens (Human), UniProt O94804); assay: KINATIV assay; conditions: 1 μM, 90 minutes, BCWM.1 cells
Summary of the method: as §1

Chain of PIK3C3 (Q8NEB9 whole entry): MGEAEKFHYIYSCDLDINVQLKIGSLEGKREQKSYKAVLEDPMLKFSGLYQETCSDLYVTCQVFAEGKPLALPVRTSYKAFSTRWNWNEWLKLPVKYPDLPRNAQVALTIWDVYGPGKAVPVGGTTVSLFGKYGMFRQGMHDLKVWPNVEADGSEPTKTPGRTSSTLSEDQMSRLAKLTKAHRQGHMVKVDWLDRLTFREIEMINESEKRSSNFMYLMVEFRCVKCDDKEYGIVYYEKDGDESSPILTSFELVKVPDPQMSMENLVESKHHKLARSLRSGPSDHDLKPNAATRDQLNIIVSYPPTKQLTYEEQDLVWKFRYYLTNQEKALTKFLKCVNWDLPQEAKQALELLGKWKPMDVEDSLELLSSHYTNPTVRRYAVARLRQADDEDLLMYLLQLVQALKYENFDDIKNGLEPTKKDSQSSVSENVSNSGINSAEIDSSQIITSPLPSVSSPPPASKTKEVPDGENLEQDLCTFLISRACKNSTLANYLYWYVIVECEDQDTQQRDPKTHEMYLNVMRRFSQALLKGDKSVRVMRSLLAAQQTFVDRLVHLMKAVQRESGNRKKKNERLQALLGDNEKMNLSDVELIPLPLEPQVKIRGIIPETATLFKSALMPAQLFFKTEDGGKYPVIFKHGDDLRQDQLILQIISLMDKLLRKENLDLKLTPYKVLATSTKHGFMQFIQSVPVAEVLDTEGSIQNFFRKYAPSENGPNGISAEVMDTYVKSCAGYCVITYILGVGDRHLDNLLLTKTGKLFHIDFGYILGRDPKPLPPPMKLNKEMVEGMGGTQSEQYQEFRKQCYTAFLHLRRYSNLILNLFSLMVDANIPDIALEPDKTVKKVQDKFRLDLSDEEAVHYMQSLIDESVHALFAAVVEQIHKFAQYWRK
Chain of MAP2K4 (P45985 whole entry): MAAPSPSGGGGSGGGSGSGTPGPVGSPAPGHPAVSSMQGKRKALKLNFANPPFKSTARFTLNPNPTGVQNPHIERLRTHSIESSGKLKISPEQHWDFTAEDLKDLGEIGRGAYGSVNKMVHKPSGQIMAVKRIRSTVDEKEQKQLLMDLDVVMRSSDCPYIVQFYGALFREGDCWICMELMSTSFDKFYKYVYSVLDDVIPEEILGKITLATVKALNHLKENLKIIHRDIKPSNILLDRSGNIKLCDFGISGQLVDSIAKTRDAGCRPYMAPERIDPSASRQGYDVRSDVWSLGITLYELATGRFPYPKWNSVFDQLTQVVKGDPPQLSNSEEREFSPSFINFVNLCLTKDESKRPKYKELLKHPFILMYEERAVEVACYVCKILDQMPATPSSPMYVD
Chain of LOK (O94804 whole entry): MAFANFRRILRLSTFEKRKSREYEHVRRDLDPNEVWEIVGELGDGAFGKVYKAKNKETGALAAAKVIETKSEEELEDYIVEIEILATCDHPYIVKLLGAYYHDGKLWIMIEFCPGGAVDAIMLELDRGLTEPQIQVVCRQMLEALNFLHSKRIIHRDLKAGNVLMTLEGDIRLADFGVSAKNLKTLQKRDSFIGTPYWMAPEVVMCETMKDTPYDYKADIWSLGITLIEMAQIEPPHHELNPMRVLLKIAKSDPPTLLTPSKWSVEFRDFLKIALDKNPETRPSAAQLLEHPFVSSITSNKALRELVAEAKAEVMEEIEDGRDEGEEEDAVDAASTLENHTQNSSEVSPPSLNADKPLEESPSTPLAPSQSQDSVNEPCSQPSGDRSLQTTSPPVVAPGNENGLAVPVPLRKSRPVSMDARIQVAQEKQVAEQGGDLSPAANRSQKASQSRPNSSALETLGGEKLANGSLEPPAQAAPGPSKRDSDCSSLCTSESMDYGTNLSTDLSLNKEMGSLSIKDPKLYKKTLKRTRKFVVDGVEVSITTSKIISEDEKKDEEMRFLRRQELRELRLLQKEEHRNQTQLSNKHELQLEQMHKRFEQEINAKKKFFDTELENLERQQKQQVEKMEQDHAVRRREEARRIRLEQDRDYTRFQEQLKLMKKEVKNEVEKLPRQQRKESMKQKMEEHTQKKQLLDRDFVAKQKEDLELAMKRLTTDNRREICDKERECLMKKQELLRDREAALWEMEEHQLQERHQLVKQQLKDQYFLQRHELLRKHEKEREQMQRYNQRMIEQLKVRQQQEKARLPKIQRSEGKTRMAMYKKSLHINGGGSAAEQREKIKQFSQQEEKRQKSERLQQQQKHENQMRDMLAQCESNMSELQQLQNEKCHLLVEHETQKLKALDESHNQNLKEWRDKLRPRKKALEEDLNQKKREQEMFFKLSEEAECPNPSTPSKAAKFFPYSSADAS
Chain of PLK1 (P53350 whole entry): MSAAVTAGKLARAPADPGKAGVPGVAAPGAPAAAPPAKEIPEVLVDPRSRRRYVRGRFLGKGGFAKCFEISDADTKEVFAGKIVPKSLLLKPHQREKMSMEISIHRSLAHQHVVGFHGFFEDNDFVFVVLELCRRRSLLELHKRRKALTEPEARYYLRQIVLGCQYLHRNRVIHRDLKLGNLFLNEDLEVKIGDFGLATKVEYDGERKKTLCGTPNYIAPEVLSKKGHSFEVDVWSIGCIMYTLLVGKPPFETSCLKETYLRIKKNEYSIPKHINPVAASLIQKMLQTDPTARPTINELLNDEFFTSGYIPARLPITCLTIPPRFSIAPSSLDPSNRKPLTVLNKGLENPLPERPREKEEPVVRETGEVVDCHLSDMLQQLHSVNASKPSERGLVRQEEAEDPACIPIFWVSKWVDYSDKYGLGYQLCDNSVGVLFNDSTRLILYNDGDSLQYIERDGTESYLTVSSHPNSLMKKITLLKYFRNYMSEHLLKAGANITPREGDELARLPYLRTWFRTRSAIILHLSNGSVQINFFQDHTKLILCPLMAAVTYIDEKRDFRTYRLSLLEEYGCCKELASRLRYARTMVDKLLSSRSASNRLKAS
Chain of RSK1 domain 1 (Q15418 whole entry, the tested form may be a part): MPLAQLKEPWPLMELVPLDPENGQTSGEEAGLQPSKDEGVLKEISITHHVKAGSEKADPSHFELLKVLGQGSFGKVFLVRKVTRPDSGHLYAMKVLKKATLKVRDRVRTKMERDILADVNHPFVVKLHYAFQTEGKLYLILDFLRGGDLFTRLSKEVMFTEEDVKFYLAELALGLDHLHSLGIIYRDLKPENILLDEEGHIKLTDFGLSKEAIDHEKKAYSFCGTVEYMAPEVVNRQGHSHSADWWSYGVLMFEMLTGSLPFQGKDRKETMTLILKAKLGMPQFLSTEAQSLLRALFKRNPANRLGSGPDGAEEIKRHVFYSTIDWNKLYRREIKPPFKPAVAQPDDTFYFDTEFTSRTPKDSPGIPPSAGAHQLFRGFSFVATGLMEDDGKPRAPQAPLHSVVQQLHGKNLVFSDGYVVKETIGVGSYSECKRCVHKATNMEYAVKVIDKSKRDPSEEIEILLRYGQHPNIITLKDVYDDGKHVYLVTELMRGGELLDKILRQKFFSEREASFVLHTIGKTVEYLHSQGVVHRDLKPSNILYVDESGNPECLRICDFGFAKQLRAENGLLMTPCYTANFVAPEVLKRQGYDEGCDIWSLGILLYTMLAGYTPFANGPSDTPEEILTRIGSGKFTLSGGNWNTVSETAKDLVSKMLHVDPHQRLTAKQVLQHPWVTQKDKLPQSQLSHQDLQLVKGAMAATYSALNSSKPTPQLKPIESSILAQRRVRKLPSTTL
Chain of MAP2K3 (P46734 whole entry): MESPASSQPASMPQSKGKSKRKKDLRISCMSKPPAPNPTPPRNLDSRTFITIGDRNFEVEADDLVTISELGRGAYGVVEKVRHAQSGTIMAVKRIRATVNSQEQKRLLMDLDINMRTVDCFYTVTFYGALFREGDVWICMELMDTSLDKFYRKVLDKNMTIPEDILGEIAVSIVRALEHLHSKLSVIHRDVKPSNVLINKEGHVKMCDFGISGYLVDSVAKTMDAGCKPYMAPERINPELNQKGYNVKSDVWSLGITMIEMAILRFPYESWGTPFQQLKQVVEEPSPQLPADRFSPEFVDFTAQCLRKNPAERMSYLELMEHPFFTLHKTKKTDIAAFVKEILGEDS
Chain of MAP2K5 (Q13163 whole entry): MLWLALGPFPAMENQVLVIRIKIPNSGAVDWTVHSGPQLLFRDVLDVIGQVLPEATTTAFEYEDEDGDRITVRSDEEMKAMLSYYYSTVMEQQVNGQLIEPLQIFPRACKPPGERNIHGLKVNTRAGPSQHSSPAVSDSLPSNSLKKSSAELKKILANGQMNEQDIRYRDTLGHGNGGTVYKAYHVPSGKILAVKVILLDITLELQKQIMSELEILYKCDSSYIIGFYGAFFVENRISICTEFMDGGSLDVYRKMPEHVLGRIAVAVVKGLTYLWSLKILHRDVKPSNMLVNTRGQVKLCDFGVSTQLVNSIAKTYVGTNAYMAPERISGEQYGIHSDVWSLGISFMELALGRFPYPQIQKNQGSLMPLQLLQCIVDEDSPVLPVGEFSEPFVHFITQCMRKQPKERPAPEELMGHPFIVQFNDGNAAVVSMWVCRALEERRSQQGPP
Chain of CHK1 (O14757 whole entry): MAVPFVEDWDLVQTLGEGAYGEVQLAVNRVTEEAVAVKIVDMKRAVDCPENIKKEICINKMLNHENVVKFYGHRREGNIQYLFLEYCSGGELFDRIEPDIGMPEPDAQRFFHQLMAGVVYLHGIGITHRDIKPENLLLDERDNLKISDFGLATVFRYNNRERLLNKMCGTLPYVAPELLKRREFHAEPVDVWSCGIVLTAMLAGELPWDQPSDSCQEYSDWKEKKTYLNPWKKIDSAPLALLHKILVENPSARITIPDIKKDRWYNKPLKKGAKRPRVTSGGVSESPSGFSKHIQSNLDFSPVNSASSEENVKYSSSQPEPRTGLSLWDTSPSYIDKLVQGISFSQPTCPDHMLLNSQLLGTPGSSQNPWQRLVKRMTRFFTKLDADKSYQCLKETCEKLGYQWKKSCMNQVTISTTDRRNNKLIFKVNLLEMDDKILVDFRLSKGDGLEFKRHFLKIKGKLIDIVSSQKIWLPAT

SMILES	% change of MS signal compared to control sample (CHK1)	% change of MS signal compared to control sample (MST3)	% change of MS signal compared to control sample (FER)	% change of MS signal compared to control sample (MAP2K4)	% change of MS signal compared to control sample (CHK2)	% change of MS signal compared to control sample (NDR2)	% change of MS signal compared to control sample (MAP2K5)	% change of MS signal compared to control sample (GCK)	% change of MS signal compared to control sample (SMG1)	% change of MS signal compared to control sample (kinases in BCWM.1 cells [1])	% change of MS signal compared to control sample (kinases in BCWM.1 cells [2])	% change of MS signal compared to control sample (kinases in BCWM.1 cells [3])	% change of MS signal compared to control sample (kinases in BCWM.1 cells [4])	% change of MS signal compared to control sample (kinases in BCWM.1 cells [5])	% change of MS signal compared to control sample (kinases in BCWM.1 cells [6])	% change of MS signal compared to control sample (kinases in BCWM.1 cells [7])	% change of MS signal compared to control sample (kinases in BCWM.1 cells [8]; RSK2 domain1)	% change of MS signal compared to control sample (kinases in BCWM.1 cells [8]; RSK2 domain2)	% change of MS signal compared to control sample (kinases in BCWM.1 cells [9])	% change of MS signal compared to control sample (kinases in BCWM.1 cells [10])	also measured
C=CC(=O)N1CCC(CNc2nccc(Nc3ncc(C(=O)Nc4c(C)cccc4C)s3)n2)C1 (racemic) [Example I-8]	15.3% and 24.7%	−1.5% and −7.7%	−7.7% and −4.8%	−8.5% and −6.1%	−14.3% and −10.9%	1.9% and 9.1%	19.2% and 30.9%	2.0% and 2.4%	23.1%												
C=CC(=O)N1CC[C@H](Nc2nccc(Nc3ncc(C(=O)Nc4c(C)cccc4C)s3)n2)C1 [Example I-3]										−17%	0.9%	10.1%	10.4%	−14.8%	−10.1%	5%	−2%	−10.2%	5.5%	−31.2%	% change of MS signal compared to control sample (kinases in BCWM.1 cells [11]): −7.8%; % change of MS signal compared to control sample (kinases in BCWM.1 cells [12]): 2.4%; % change of MS signal compared to control sample (kinases in BCWM.1 cells [13]): −6.6%; % change of MS signal compared to control sample (kinases in BCWM.1 cells [14]): 32.9%; % change of MS signal compared to control sample (kinases in BCWM.1 cells [15]): −16.9%; % change of MS signal compared to control sample (kinases in BCWM.1 cells [16]): 2.5%
C=CC(=O)N1CC[C@@H](Nc2nccc(Nc3ncc(C(=O)Nc4c(C)cccc4C)s3)n2)C1 [Example I-4]	24.1%			−48.8%	−7.9% and 1.0%	−42.0%															% change of MS signal compared to control sample (CDK5): −7.1% and −7.2%; % change of MS signal compared to control sample (PIK3C3): −14.1% and −5.5%; % change of MS signal compared to control sample (MAP2K3): −12.3% and −18.8%; % change of MS signal compared to control sample (PLK1): 17.4%; % change of MS signal compared to control sample (IRAK4): 17.8% and 25.9%; % change of MS signal compared to control sample (RSK1 domain 1): −62.2% and −53.4%; % change of MS signal compared to control sample (LOK): −27.4%
C=CC(=O)N1CCCCC(Nc2nccc(Nc3ncc(C(=O)Nc4c(C)cccc4C)s3)n2)C1 (stereo not drawn) [Example I-7]			−5.8% and −5.3%				37.6% and 45.7%	−12.2% and −4.1%	21.5%												
CCC(=O)N1CC[C@H](Nc2nccc(Nc3ncc(C(=O)Nc4c(C)cccc4C)s3)n2)C1 [Example I-9]										13.5%	−3.9%	−13.1%	−12.9%	20.9%	−17.7%	4.3%	−5.6%	−9.7%	−11%	12.5%	% change of MS signal compared to control sample (kinases in BCWM.1 cells [11]): −4%; % change of MS signal compared to control sample (kinases in BCWM.1 cells [12]): −23.4%; % change of MS signal compared to control sample (kinases in BCWM.1 cells [13]): −3.1%; % change of MS signal compared to control sample (kinases in BCWM.1 cells [14]): 11.4%; % change of MS signal compared to control sample (kinases in BCWM.1 cells [15]): −2.1%; % change of MS signal compared to control sample (kinases in BCWM.1 cells [16]): 4%
C=CC(=O)N1CCC(Cn2ccc(Nc3ncc(C(=O)Nc4c(C)cccc4Cl)s3)n2)C1 (stereo not drawn) [II-1]		5.9% and 2.0%																			% change of MS signal compared to control sample (CDK5): −11.2% and −8.0%; % change of MS signal compared to control sample (PIK3C3): −4.7% and −11.6%; % change of MS signal compared to control sample (MAP2K3): −19.5% and −15.9%; % change of MS signal compared to control sample (PLK1): 0.5% and −0.2%; % change of MS signal compared to control sample (IRAK4): 15.9% and 18.5%; % change of MS signal compared to control sample (RSK1 domain 1): −76.3%; % change of MS signal compared to control sample (LOK): −5.5% and −15.4%

Source: US10844077B2, “Thiazolyl-containing compounds for treating proliferative diseases” (Dana-Farber Cancer Institute, Inc., priority 2014, dated 2020)
